Patent publication US6355799B1, “Substituted benzene compounds, process for their preparation, and herbicidal and defoliant compositions containing them” (ISK Americas Incorporated, priority 1997, dated 2002)

Columns and labels:
Format in all cases: in vivo
[1] = tested on: redroot pigweed (Amaranthus retroflexus, AMARE); assay: Pre-emerge test, greenhouse herbicide activity screening; settings: pre-emerge, 14 days after application, rating scale 0-100
Method in brief: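 Plants grown in 10 cm pots of sandy loam mix received acetone-dissolved compounds through a moving flat-fan nozzle. Doses ranged from 15 to 1000 g ai/ha. Pre-emerge pots were seeded one day earlier, post-emerge pots 8–21 days earlier. Fourteen days on, each pot was graded 0–100 for damage.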

[2] = tested on: barnyardgrass (Echinochloa crus-galli, ECHCG); assay: as above; settings: pre-emerge, 14 days after application, rating scale 0-100
Method in brief: (§1)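 Compounds in acetone were track-sprayed at 187 l/ha, 15–1000 g ai/ha, onto sandy loam pots. Pre-emerge seeds were sown one day before spraying, with surface watering afterwards. Post-emerge plants were at the 2–3 leaf stage and sprayed with 0.25% v/v non-ionic surfactant. Injury was rated 0–100 at 14 days.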

[3] = tested on: green foxtail (Setaria viridis, SETVI); assay: as above; settings: pre-emerge, 14 days after application, rating scale 0-100
Method in brief: as §1

[4] = tested on: ivyleaf morningglory (Ipomoea hederacea, IPOHE); assay: as above; settings: pre-emerge, 14 days after application, rating scale 0-100
Method in brief: as §1

[5] = tested on: johnsongrass (Sorghum halepense, SORHA); assay: as above; settings: pre-emerge, 14 days after application, rating scale 0-100
Method in brief: as §1

[6] = tested on: lambsquarters (Chenopodium album, CHEAL); assay: as above; settings: pre-emerge, 14 days after application, rating scale 0-100
Method in brief: as §1

[7] = tested on: large crabgrass (Digitaria sanguinalis, DIGSA); assay: as above; settings: pre-emerge, 14 days after application, rating scale 0-100
Method in brief: as §1

[8] = tested on: sicklepod (Cassia obtusifolia, CASOB); assay: as above; settings: pre-emerge, 14 days after application, rating scale 0-100
Method in brief: as §1

[9] = tested on: velvetleaf (Abutilon theophrasti, ABUTH); assay: as above; settings: pre-emerge, 14 days after application, rating scale 0-100
Method in brief: as §1

[10] = tested on: field corn (Zea mays L., var. Dekalb 535, CORN); assay: Pre-emerge test, crop safety; settings: pre-emerge, 14 days after application, rating scale 0-100
Method in brief: (§2)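 Fourteen days after spraying, crop and weed injury was graded visually from 0, no effect, to 100, every plant dead. Test substances were dissolved in acetone and applied at 15–1000 g ai/ha with a flat-fan nozzle. Application was either pre-emergence, one day after sowing, or post-emergence at the 2–3 leaf stage.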

[11] = tested on: upland rice (Oryza sp., var. Tebonnet, RICE); assay: Pre-emerge test, crop safety; settings: pre-emerge, 14 days after application, rating scale 0-100
Method in brief: as §2

[12] = tested on: barnyardgrass (Echinochloa crus-galli, ECHCG); assay: Post-emerge test, greenhouse herbicide activity screening; settings: post-emerge, 14 days after application, rating scale 0-100
Method in brief: as §2

[13] = tested on: green foxtail (Setaria viridis, SETVI); assay: as above; settings: post-emerge, 14 days after application, rating scale 0-100
Method in brief: as §2

[14] = tested on: ivyleaf morningglory (Ipomoea hederacea, IPOHE); assay: as above; settings: post-emerge, 14 days after application, rating scale 0-100
Method in brief: as §2

[15] = tested on: johnsongrass (Sorghum halepense, SORHA); assay: as above; settings: post-emerge, 14 days after application, rating scale 0-100
Method in brief: as §2

[16] = tested on: large crabgrass (Digitaria sanguinalis, DIGSA); assay: as above; settings: post-emerge, 14 days after application, rating scale 0-100
Method in brief: as §2

[17] = tested on: redroot pigweed (Amaranthus retroflexus, AMARE); assay: as above; settings: post-emerge, 14 days after application
Method in brief: as §2

[18] = tested on: sicklepod (Cassia obtusifolia, CASOB); assay: as above; settings: post-emerge, 14 days after application, rating scale 0-100
Method in brief: as §2

[19] = tested on: velvetleaf (Abutilon theophrasti, ABUTH); assay: as above; settings: post-emerge, 14 days after application, rating scale 0-100
Method in brief: as §2

[20] = tested on: field corn (Zea mays L., var. Dekalb 535, CORN); assay: Post-emerge test, crop safety; settings: post-emerge, 14 days after application, rating scale 0-100
Method in brief: as §1

[21] = tested on: upland rice (Oryza sp., var. Tebonnet, RICE); assay: Post-emerge test, crop safety; settings: post-emerge, 14 days after application, rating scale 0-100
Method in brief: as §1

COc1c(Cl)cc(F)c(-n2c(=O)cc(C(F)(F)F)n(C)c2=O)c1NN=CC(C)c1ccccc1 (stereo not drawn) [15-17]
phytotoxicity rating AMARE ([1]; 63 g ai/ha): 100 | phytotoxicity rating AMARE ([1]; 250 g ai/ha): 100 | phytotoxicity rating ECHCG ([2]; 63 g ai/ha): 100 | phytotoxicity rating ECHCG ([2]; 250 g ai/ha): 100 | phytotoxicity rating SETVI ([3]; 63 g ai/ha): 100 | phytotoxicity rating SETVI ([3]; 250 g ai/ha): 100 | phytotoxicity rating IPOHE ([4]; 63 g ai/ha): 100 | phytotoxicity rating IPOHE ([4]; 250 g ai/ha): 100 | phytotoxicity rating SORHA ([5]; 63 g ai/ha): 100 | phytotoxicity rating SORHA ([5]; 250 g ai/ha): 100 | phytotoxicity rating CHEAL ([6]; 63 g ai/ha): 100 | phytotoxicity rating CHEAL ([6]; 250 g ai/ha): 100 | phytotoxicity rating DIGSA ([7]; 63 g ai/ha): 100 | phytotoxicity rating DIGSA ([7]; 250 g ai/ha): 100 | phytotoxicity rating CASOB ([8]; 63 g ai/ha): 100 | phytotoxicity rating CASOB ([8]; 250 g ai/ha): 100 | phytotoxicity rating ABUTH ([9]; 63 g ai/ha): 100 | phytotoxicity rating ABUTH ([9]; 250 g ai/ha): 100 | phytotoxicity rating CORN ([10]; 63 g ai/ha): 80 | phytotoxicity rating CORN ([10]; 250 g ai/ha): 95 | phytotoxicity rating RICE ([11]; 63 g ai/ha): 100 | phytotoxicity rating RICE ([11]; 250 g ai/ha): 100 | Post-emerge Herbicidal Activity ECHCG (phytotoxicity rating) ([12]; 63 g ai/ha): 50 | Post-emerge Herbicidal Activity ECHCG (phytotoxicity rating) ([12]; 250 g ai/ha): 99 | Post-emerge Herbicidal Activity SETVI (phytotoxicity rating) ([13]; 63 g ai/ha): 40 | Post-emerge Herbicidal Activity SETVI (phytotoxicity rating) ([13]; 250 g ai/ha): 90 | Post-emerge Herbicidal Activity IPOHE (phytotoxicity rating) ([14]; 63 g ai/ha): 100 | Post-emerge Herbicidal Activity IPOHE (phytotoxicity rating) ([14]; 250 g ai/ha): 100 | Post-emerge Herbicidal Activity SORHA (phytotoxicity rating) ([15]; 63 g ai/ha): 20 | Post-emerge Herbicidal Activity SORHA (phytotoxicity rating) ([15]; 250 g ai/ha): 95 | Post-emerge Herbicidal Activity DIGSA (phytotoxicity rating) ([16]; 63 g ai/ha): 40 | Post-emerge Herbicidal Activity DIGSA (phytotoxicity rating) ([16]; 250 g ai/ha): 99 | Post-emerge Herbicidal Activity AMARE (phytotoxicity rating) ([17]; 63 g ai/ha, rating scale 0-100 (0 no damage, 100 complete death)): 90 | Post-emerge Herbicidal Activity AMARE (phytotoxicity rating) ([17]; 250 g ai/ha, rating scale 0-100): 100 | Post-emerge Herbicidal Activity CASOB (phytotoxicity rating) ([18]; 63 g ai/ha): 80 | Post-emerge Herbicidal Activity CASOB (phytotoxicity rating) ([18]; 250 g ai/ha): 100 | Post-emerge Herbicidal Activity ABUTH (phytotoxicity rating) ([19]; 63 g ai/ha): 100 | Post-emerge Herbicidal Activity ABUTH (phytotoxicity rating) ([19]; 250 g ai/ha): 100 | Post-emerge Herbicidal Activity CORN (crop damage rating) ([20]; 63 g ai/ha): 35 | Post-emerge Herbicidal Activity CORN (crop damage rating) ([20]; 250 g ai/ha): 80 | Post-emerge Herbicidal Activity RICE (crop damage rating) ([21]; 63 g ai/ha): 75 | Post-emerge Herbicidal Activity RICE (crop damage rating) ([21]; 250 g ai/ha): 90
